Assays:
[1] = test system: rat model of stroke induced by middle cerebral artery occlusion (MCAO); assay: Grip strength, dosing regimen (Example 4); assay type: in vivo, SD rats; settings: 10 mg/kg (table label) i.v. Bid from 30 min after infarction; Day 14
Description: The first administration of the respective treatments was started 30 minutes (Day 1 of study) after the MCAO procedure of the rats. For the butylphthalide group, subsequent doses were administered every day after for 14 days. For the ALMB-0166 test groups, a second dose of the antibody was administered at Day 4 post-stroke (Day 4 of the study). Thirty-six (36) SD rats received behavioral training after adaptive feeding period and before the operation to establish stroke models. The behavioral training included beam-walking, grip and rotarod tests. The experimental rats were then randomly divided into 6 groups according to the body weight, with 6 rats in each test group as described in Table 15. The rats were fasted overnight before modeling and were anesthetized with isoflurane. Right middle cerebral artery occlusion (MCAO) was induced in each rat using the intraluminal filament technique to mimic focal cerebral ischemic stroke. After 2 hrs, reperfusion was allowed by removing the occlusion. Administration of butylphthalide was performed 0.5 hrs after the infarction, and every day after the operation (14 days). Administration of ALMB-0166 and the vehicle treatment was performed at 0.5 hrs and at Day 4 after the operation. The body weight of rats was recorded before the operation (Day 0 of study) and on Days 2, 4, 7, and 11 after the procedure. The rats were scored by the Longa method at Day 1 (24-hours) post-procedure. The neurological function was evaluated at Days 1, 2, 4, 7, and 14 after the procedure, and was assessed by beam-walking, grip strength, and rotarod tests. At Day 14 after reperfusion, the whole brain tissue of all rats was harvested to assess the cerebral infarct area by TTC staining. The total infarct volume was determined, and the infarct volume ratio was calculated by dividing the total infarct volume by the whole brain volume. For calculating the infarct volume rate, the difference in infarct volume ratio between the model group and the corresponding administration group was divided by the infarct volume ratio of the model group.

[2] = test system: mouse model of stroke induced by middle cerebral artery occlusion (MCAO); assay: Beam-walking test, time of treatment (Example 2); assay type: in vivo, ICR mice
Description: (§1) The administration of 10 mg/kg butylphthalide and 50 mg/kg ALMB-0166 was started 30 minutes, 2 hours, or 6 hours after the MCAO procedure of the mice. Ninety-six (96) ICR mice received behavioral training after adaptive feeding period and before the operation to establish stroke models. The behavioral training included beam-walking and rotarod test. The experimental mice were then randomly divided into 8 groups according to the values of the body weight, with 12 mice in each test group as described in Table 1. The mice were fasted overnight before modeling and were anesthetized with isoflurane. Right middle cerebral artery occlusion (MCAO) was induced in mice using the intraluminal filament technique to mimic focal cerebral ischemic stroke. After 1 hr, reperfusion was allowed by removing the occlusion. Administration of each treatment was performed 0.5 hrs, 2 hrs, or 6 hrs after the infarction. The neurological function score was evaluated at 24 hrs and 48 hrs after reperfusion, as was assessed by beam-walking, grip strength, and rotarod tests. At 48 hrs after reperfusion, the whole brain tissue of all rats was harvested to assess the cerebral infarct area by TTC staining, as well as to measure brain volume and brain water content, two indicators of acute cerebral edema.

[3] = test system: mouse model of stroke induced by middle cerebral artery occlusion (MCAO); assay: Cerebral infarct volume by TTC staining, time of treatment (Example 2); assay type: in vivo, ICR mice; settings: 48 h after reperfusion; for Improvement rate of infarction: vs model
Description: as §1

[4] = test system: mouse model of stroke induced by middle cerebral artery occlusion (MCAO); assay: Grip strength (Example 1); assay type: in vivo, ICR mice; settings: 10 mg/kg i.v. Bid from 30 min after infarction
Description: (§2) The administration of the respective treatments was started 30 minutes after the MCAO procedure of the mice.
(§3) Seventy-two (72) ICR mice received behavioral training after adaptive feeding period and before the operation to establish stroke models. The behavioral training included beam-walking and rotarod test. The experimental mice were then randomly divided into 6 groups according to the values of the body weight, with 12 mice in each test group as described in Table 1.
(§4) The mice were fasted overnight before modeling and were anesthetized with isoflurane. Right middle cerebral artery occlusion (MCAO) was induced in mice using the intraluminal filament technique to mimic focal cerebral ischemic stroke. After 1 hr, reperfusion was allowed by removing the occlusion. During the operation, a white light was used to maintain the mouse rectal temperature between 36.5° C.-37.0° C.
(§5) Administration of each treatment was performed 0.5 h after the infarction. The neurological function score was evaluated at 24 hrs and 48 hrs after reperfusion, as was assessed by beam-walking, grip strength, and rotarod tests. At 48 h after reperfusion, the whole brain tissue of all rats was harvested to assess the cerebral infarct area by TTC staining, as well as to measure brain volume and brain water content, two indicators of acute cerebral edema.

[5] = test system: rat model of stroke induced by middle cerebral artery occlusion (MCAO); assay: Cerebral infarct volume by TTC staining (Example 3); assay type: in vivo, SD rats; settings: 10 mg/kg (table label) i.v. Bid from 30 min after infarction, 48 h after reperfusion
Description: (§6) The administration of the respective treatments was started 30 minutes after the MCAO procedure of the rats.
as §3, with “SD rats” for “ICR mice”, “beam-walking, grip” for “beam-walking”, “tests.” for “test.”, “rats” for “mice”, “the” for “the values of the”, “15.” for “1.”
(§7) The rats were fasted overnight before modeling and were anesthetized with isoflurane. Right middle cerebral artery occlusion (MCAO) was induced in each rat using the intraluminal filament technique to mimic focal cerebral ischemic stroke. After 2 hrs, reperfusion was allowed by removing the occlusion.
as §5, with “The rats were scored by the Longa method at 24-hours post-procedure. The” for “The”, “function” for “function score”, “at 24-hr” for “at 24 hrs”, “and 48-hr” for “and 48 hrs”, “reperfusion, and” for “reperfusion, as”

[6] = test system: rat model of stroke induced by middle cerebral artery occlusion (MCAO); assay: Grip strength (Example 3); assay type: in vivo, SD rats; settings: 10 mg/kg (table label) i.v. Bid from 30 min after infarction
Description: as §6
as §3, with “SD rats” for “ICR mice”, “beam-walking, grip” for “beam-walking”, “tests.” for “test.”, “rats” for “mice”, “the” for “the values of the”, “15.” for “1.”
as §7
as §5, with “The rats were scored by the Longa method at 24-hours post-procedure. The” for “The”, “function” for “function score”, “at 24-hr” for “at 24 hrs”, “and 48-hr” for “and 48 hrs”, “reperfusion, and” for “reperfusion, as”

[7] = test system: mouse model of stroke induced by middle cerebral artery occlusion (MCAO); assay: Rotarod test, time of treatment (Example 2); assay type: in vivo, ICR mice
Description: as §1

[8] = test system: rat model of stroke induced by middle cerebral artery occlusion (MCAO); assay: Beam-walking test (Example 3); assay type: in vivo, SD rats; settings: 10 mg/kg (table label) i.v. Bid from 30 min after infarction
Description: as §6
as §3, with “SD rats” for “ICR mice”, “beam-walking, grip” for “beam-walking”, “tests.” for “test.”, “rats” for “mice”, “the” for “the values of the”, “15.” for “1.”
as §7
as §5, with “The rats were scored by the Longa method at 24-hours post-procedure. The” for “The”, “function” for “function score”, “at 24-hr” for “at 24 hrs”, “and 48-hr” for “and 48 hrs”, “reperfusion, and” for “reperfusion, as”

[9] = test system: mouse model of stroke induced by middle cerebral artery occlusion (MCAO); assay: Grip strength, time of treatment (Example 2); assay type: in vivo, ICR mice
Description: as §1

[10] = test system: mouse model of stroke induced by middle cerebral artery occlusion (MCAO); assay: Cerebral infarct volume by TTC staining (Example 1); assay type: in vivo, ICR mice; settings: 10 mg/kg i.v. Bid from 30 min after infarction, 48 h after reperfusion
Description: as §2, §3, §4, §5

[11] = test system: mouse model of stroke induced by middle cerebral artery occlusion (MCAO); assay: Beam-walking test (Example 1); assay type: in vivo, ICR mice; settings: 10 mg/kg i.v. Bid from 30 min after infarction
Description: as §2, §3, §4, §5

[12] = 10 mg/kg i.v. once 0.5 hr after infarction, 24 h
[13] = 10 mg/kg i.v. once 0.5 hr after infarction, 48 h
[14] = 10 mg/kg i.v. once 2 hr after infarction, 24 h
[15] = 10 mg/kg i.v. once 2 hr after infarction, 48 h
[16] = 10 mg/kg i.v. once 6 hr after infarction, 24 h
[17] = 10 mg/kg i.v. once 6 hr after infarction, 48 h
[18] = 10 mg/kg i.v. once 0.5 hr after infarction
[19] = 10 mg/kg i.v. once 2 hr after infarction
[20] = 10 mg/kg i.v. once 6 hr after infarction

`CCCCC1OC(=O)c2ccccc21` (stereo not shown) [Butylphthalide] was tested, and the “Grip Strength” value [1] was 585.23 g, the Beam-walking time [2, 12] was 57.69 ± 3.94 s and the Beam-walking time [2, 13] was 51.37 ± 16.46 s. For the same compound, the Beam-walking time [2, 14] was 53.12 ± 12.48 s, the Beam-walking time [2, 15] was 52.73 ± 10.98 s and the Beam-walking time [2, 16] was 10.32 s. For the same compound, the Beam-walking time [2, 17] was 58.57 ± 3.23 s, the “Cerebral Infarction Volume” value [3, 18] was 28.56% and the “Improvement rate of infarction” value [3, 18] was 33.50%. For the same compound, the “Cerebral Infarction Volume” value [3, 19] was 34.25%, the “Improvement rate of infarction” value [3, 19] was 20.25% and the “Cerebral Infarction Volume” value [3, 20] was 31.89%. The “Improvement rate of infarction” value [3, 20] was 25.76%, the “Grip Strength” value ([4]; 24 h) was 206.29 ± 46.55^ g and the “Grip Strength” value ([4]; 48 h) was 214.71 ± 34.19 g. For the same compound, the “Cerebral Infarction Volume” value [5] was 22.41%, the “Improvement rate of infarction” value ([5]; vs model) was 30.84% and the “Grip Strength” value ([6]; 24 h) was 404.73 g. For the same compound, the “Grip Strength” value ([6]; 48 h) was 419.93 g, the “Rotarod test score, Time” value [7, 12] was 151.83 s and the “Rotarod test score, Time” value [7, 13] was 193.25 s. The “Rotarod test score, Time” value [7, 14] was 124.67 s, the “Rotarod test score, Time” value [7, 15] was 171.67 s and the “Rotarod test score, Time” value [7, 16] was 121.42 s. The “Rotarod test score, Time” value [7, 17] was 98.00 s, the Beam-walking time ([8]; 24 h) was 38.91 s and the Beam-walking time ([8]; 48 h) was 45.80 s. For the same compound, the “Grip Strength” value [9, 12] was 203.13 ± 35.30 g, the “Grip Strength” value [9, 13] was 196.04 ± 41.72 g and the “Grip Strength” value [9, 14] was 199.41 ± 38.48 g. For the same compound, the “Grip Strength” value [9, 15] was 186.33 ± 44.64 g, the “Grip Strength” value [9, 16] was 187.08 ± 53.81 g and the “Grip Strength” value [9, 17] was 168.16 ± 66.94 g. The “Cerebral Infarction Volume” value [10] was 27.29 ± 13.07 %, the “Improvement rate of infarction” value ([10]; vs model) was 43.02% and the Beam-walking time ([11]; 24 h) was 41.27 ± 21.52 s. The Beam-walking time ([11]; 48 h) was 41.92 ± 22.83 s.

— patent US20250059264A1, “METHOD OF TREATING STROKE” (AlaMab Therapeutics, Inc., priority 2023, published 2025)
